{"source": "patent US11000033B2", "about": "“Ketone or oxime compound, and herbicide” (NISSAN CHEMICAL CORPORATION, priority 2014, dated 2021)", "format_in_all_cases": "in vivo", "key": {"[1]": {"system": "Echinochloa crus-galli var. crus-galli", "experiment": "Test Example 3: herbicidal effect by foliage application, Wagner pot (symbol H)", "conditions": "application herbicide amount 320 g/ha", "outline": "(§1)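 Seeds sown in alluvial soil kept under 0.1–0.5 cm water, greenhouse 25–30 °C; 14 d growth. Leaves treated by small sprayer with water-diluted emulsion at a predetermined rate. Effect graded by set scale, 3 weeks.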"}, "Monochoria vaginalis [2]": {"system": "Monochoria vaginalis", "experiment": "Test Example 2: herbicidal activity, application during weed generation in submerged conditions (symbol C)", "conditions": "Table 23; application herbicide amount 320 g/ha; grade 0-5 by criteria of Test Example 1", "outline": "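Each pot contained alluvial soil under 4 cm of water with seeds of all three weeds sown together. Following growth at 25° C. to 30° C. to the one- to two-leaf stage, the floodwater received diluted emulsion at a predetermined amount; visual assessment followed at 3 weeks.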"}, "corn": {"system": "corn", "experiment": "Test Example 5: effect on crop by foliage application, plastic box (symbol c)", "conditions": "320 g/ha, 3 weeks after application", "outline": "(§2)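 A greenhouse held between 25° C. and 30° C. was used to grow plants sown spot-wise, beneath ~1.5 cm of soil, in boxes of sterilized diluvial soil.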"}, "soybean": {"system": "soybean", "experiment": "Test Example 5: effect on crop by foliage application, plastic box (symbol d)", "conditions": "320 g/ha, 3 weeks after application", "outline": "as §2"}, "Abutilon theophrasti": {"system": "Abutilon theophrasti", "experiment": "Test Example 4: herbicidal effect by soil treatment (symbol M)", "conditions": "320 g/ha", "excerpt": "(§3) Herbicidal Effect Test by Soil Treatment\n(§4) Sterilized diluvial soil was placed in a plastic box having a length of 21 cm, a width of 13 cm, and a depth of 7 cm. Each of the seeds of Digitaria ciliaris, Setaria viridis, Echinochloa crus-galli var. crus-galli, Avena fatua, Alopecurus myosuroides, Lolium multiflorum Lam., Apera spica-venti, Abutilon theophrasti, Amaranthus retroflexus, Chenopodium album, Stellaria media, Galium spurium, Veronica persica, corn, soybean, rice, wheat, beet, and rapeseed was sowed in a spot-like manner and was covered with the soil of a thickness of about 1.5 cm. Subsequently, the emulsion agent of the compound present invention prepared in accordance with Formulation Example 2 was diluted with water so as to be a predetermined herbicide amount and the diluted emulsion agent was uniformly applied to the surface of the soil with a small-size spray. The plastic box was placed in a greenhouse of 25° C. to 30° C. to grow plant. 3 weeks later from the herbicide application, the effect to each plant was investigated in accordance with the criteria of Test Example 1."}, "Avena fatua": {"system": "Avena fatua", "experiment": "Test Example 4: herbicidal effect by soil treatment (symbol I)", "conditions": "320 g/ha", "excerpt": "as §3, §4"}, "Monochoria vaginalis [3]": {"system": "Monochoria vaginalis", "experiment": "Test Example 1: herbicidal activity, application before weed generation in submerged conditions (symbol C)", "conditions": "application herbicide amount 320 g/ha", "outline": "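Application before weed emergence: an aqueous dilution of the emulsion formulation was poured onto the surface of 4 cm-deep floodwater on the day of sowing. Effect was judged after 3 weeks (greenhouse, 25–30 °C).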"}, "Lolium multiflorum Lam.": {"system": "Lolium multiflorum Lam.", "experiment": "Test Example 5: herbicidal effect by foliage application, plastic box (symbol K)", "conditions": "320 g/ha, 3 weeks after application", "outline": "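Post-emergence spray; diluvial soil (sterilized), ~1.5 cm seed cover; greenhouse 25–30° C; 14-day-old plants; water-diluted emulsion at predetermined dose; visual score at 3 wk post-treatment.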"}, "Leptochloa chinensis": {"system": "Leptochloa chinensis", "experiment": "Test Example 3: herbicidal effect by foliage application, Wagner pot (symbol D)", "conditions": "application herbicide amount 320 g/ha", "outline": "as §1"}, "rapeseed": {"system": "rapeseed", "experiment": "Test Example 5: effect on crop by foliage application, plastic box (symbol g)", "conditions": "320 g/ha, 3 weeks after application", "outline": "as §2"}}, "data": [{"smiles": "CON=C(C)CC1CC(OC(=O)C(CSC)=NOC)=C(c2c(C)cc(C)cc2C)C1=O", "note": "(stereo not drawn) [1-098]", "values": [{"measurement": "herbicidal effect on H (Echinochloa crus-galli var. crus-galli), grade 0-5", "setting": "[1]", "value": "5 (Herbicidal ratio of 90% or more (almost completely withered))"}, {"measurement": "Herbicidal effect grade, C: Monochoria vaginalis", "setting": "Monochoria vaginalis [2]", "value": "3 (Herbicidal ratio of 40% or higher and lower than 70%)"}, {"measurement": "c: corn, effect on crop (criteria 0-5)", "setting": "corn", "value": "5 (Herbicidal ratio of 90% or more (almost completely withered))"}, {"measurement": "d: soybean, effect on crop (criteria 0-5)", "setting": "soybean", "value": "3 (Herbicidal ratio of 40% or higher and lower than 70%)"}, {"measurement": "M: Abutilon theophrasti, herbicidal effect grade", "setting": "Abutilon theophrasti", "value": "4 (Herbicidal ratio of 70% or higher and lower than 90%)"}, {"measurement": "I: Avena fatua, herbicidal effect grade", "setting": "Avena fatua", "value": "2 (Herbicidal ratio of 20% or higher and lower than 40%)"}, {"measurement": "Herbicidal effect grade, C: Monochoria vaginalis", "setting": "Monochoria vaginalis [3]", "value": "4 (Herbicidal ratio of 70% or higher and lower than 90%)"}, {"measurement": "K: Lolium multiflorum Lam., herbicidal effect (criteria 0-5)", "setting": "Lolium multiflorum Lam.", "value": "5 (Herbicidal ratio of 90% or more (almost completely withered))"}, {"measurement": "herbicidal effect on D (Leptochloa chinensis), grade 0-5", "setting": "Leptochloa chinensis", "value": "5 (Herbicidal ratio of 90% or more (almost completely withered))"}, {"measurement": "g: rapeseed, effect on crop (criteria 0-5)", "setting": "rapeseed", "value": "5 (Herbicidal ratio of 90% or more (almost completely withered))"}]}, {"smiles": "CON=C(C)CC1CC(OC(=O)c2cc(C)on2)=C(c2c(C)cc(C)cc2C)C1=O", "note": "(stereo not drawn) [1-100]", "values": [{"measurement": "herbicidal effect on H (Echinochloa crus-galli var. crus-galli), grade 0-5", "setting": "[1]", "value": "5 (Herbicidal ratio of 90% or more (almost completely withered))"}, {"measurement": "Herbicidal effect grade, C: Monochoria vaginalis", "setting": "Monochoria vaginalis [2]", "value": "3 (Herbicidal ratio of 40% or higher and lower than 70%)"}, {"measurement": "c: corn, effect on crop (criteria 0-5)", "setting": "corn", "value": "5 (Herbicidal ratio of 90% or more (almost completely withered))"}, {"measurement": "d: soybean, effect on crop (criteria 0-5)", "setting": "soybean", "value": "3 (Herbicidal ratio of 40% or higher and lower than 70%)"}, {"measurement": "M: Abutilon theophrasti, herbicidal effect grade", "setting": "Abutilon theophrasti", "value": "4 (Herbicidal ratio of 70% or higher and lower than 90%)"}, {"measurement": "I: Avena fatua, herbicidal effect grade", "setting": "Avena fatua", "value": "3 (Herbicidal ratio of 40% or higher and lower than 70%)"}, {"measurement": "Herbicidal effect grade, C: Monochoria vaginalis", "setting": "Monochoria vaginalis [3]", "value": "3 (Herbicidal ratio of 40% or higher and lower than 70%)"}, {"measurement": "K: Lolium multiflorum Lam., herbicidal effect (criteria 0-5)", "setting": "Lolium multiflorum Lam.", "value": "5 (Herbicidal ratio of 90% or more (almost completely withered))"}, {"measurement": "herbicidal effect on D (Leptochloa chinensis), grade 0-5", "setting": "Leptochloa chinensis", "value": "5 (Herbicidal ratio of 90% or more (almost completely withered))"}, {"measurement": "g: rapeseed, effect on crop (criteria 0-5)", "setting": "rapeseed", "value": "5 (Herbicidal ratio of 90% or more (almost completely withered))"}]}, {"smiles": "CC(CC1CC(O)=C(c2c(C)cc(C)cc2C)C1=O)=NOCC#N", "note": "(stereo not drawn) [1-102]", "values": [{"measurement": "herbicidal effect on H (Echinochloa crus-galli var. crus-galli), grade 0-5", "setting": "[1]", "value": "5 (Herbicidal ratio of 90% or more (almost completely withered))"}, {"measurement": "Herbicidal effect grade, C: Monochoria vaginalis", "setting": "Monochoria vaginalis [2]", "value": "2 (Herbicidal ratio of 20% or higher and lower than 40%)"}, {"measurement": "c: corn, effect on crop (criteria 0-5)", "setting": "corn", "value": "5 (Herbicidal ratio of 90% or more (almost completely withered))"}, {"measurement": "d: soybean, effect on crop (criteria 0-5)", "setting": "soybean", "value": "0 (Herbicidal ratio of 5% or lower (almost no effect))"}, {"measurement": "M: Abutilon theophrasti, herbicidal effect grade", "setting": "Abutilon theophrasti", "value": "0 (Herbicidal ratio of 5% or lower (almost no effect))"}, {"measurement": "I: Avena fatua, herbicidal effect grade", "setting": "Avena fatua", "value": "0 (Herbicidal ratio of 5% or lower (almost no effect))"}, {"measurement": "K: Lolium multiflorum Lam., herbicidal effect (criteria 0-5)", "setting": "Lolium multiflorum Lam.", "value": "5 (Herbicidal ratio of 90% or more (almost completely withered))"}, {"measurement": "herbicidal effect on D (Leptochloa chinensis), grade 0-5", "setting": "Leptochloa chinensis", "value": "5 (Herbicidal ratio of 90% or more (almost completely withered))"}, {"measurement": "g: rapeseed, effect on crop (criteria 0-5)", "setting": "rapeseed", "value": "2 (Herbicidal ratio of 20% or higher and lower than 40%)"}]}, {"smiles": "CON=C(C)CC1CC(OC(=O)N2CCOCC2)=C(c2c(C)cc(C)cc2C)C1=O", "note": "(stereo not drawn) [1-104]", "values": [{"measurement": "herbicidal effect on H (Echinochloa crus-galli var. crus-galli), grade 0-5", "setting": "[1]", "value": "5 (Herbicidal ratio of 90% or more (almost completely withered))"}, {"measurement": "Herbicidal effect grade, C: Monochoria vaginalis", "setting": "Monochoria vaginalis [2]", "value": "0 (Herbicidal ratio of 5% or lower (almost no effect))"}, {"measurement": "c: corn, effect on crop (criteria 0-5)", "setting": "corn", "value": "4 (Herbicidal ratio of 70% or higher and lower than 90%)"}, {"measurement": "d: soybean, effect on crop (criteria 0-5)", "setting": "soybean", "value": "1 (Herbicidal ratio of 5% or higher and lower than 20%)"}, {"measurement": "M: Abutilon theophrasti, herbicidal effect grade", "setting": "Abutilon theophrasti", "value": "4 (Herbicidal ratio of 70% or higher and lower than 90%)"}, {"measurement": "I: Avena fatua, herbicidal effect grade", "setting": "Avena fatua", "value": "3 (Herbicidal ratio of 40% or higher and lower than 70%)"}, {"measurement": "Herbicidal effect grade, C: Monochoria vaginalis", "setting": "Monochoria vaginalis [3]", "value": "1 (Herbicidal ratio of 5% or higher and lower than 20%)"}, {"measurement": "K: Lolium multiflorum Lam., herbicidal effect (criteria 0-5)", "setting": "Lolium multiflorum Lam.", "value": "5 (Herbicidal ratio of 90% or more (almost completely withered))"}, {"measurement": "herbicidal effect on D (Leptochloa chinensis), grade 0-5", "setting": "Leptochloa chinensis", "value": "5 (Herbicidal ratio of 90% or more (almost completely withered))"}, {"measurement": "g: rapeseed, effect on crop (criteria 0-5)", "setting": "rapeseed", "value": "4 (Herbicidal ratio of 70% or higher and lower than 90%)"}]}]}
